Values of other authors as cited in patent publication US20160051468A1, “Compositions for Prevention and/or Treatment of Gastrointestinal Imbalances in Digestive Disorders” (BRIGHT DRINKS INC., priority 2013, published 2016).

Tests used:
TNFα = details: LPS-stimulated macrophage cell line; dose-response fashion
[1] = in vitro, compared with other tea catechins
DNA = details: hydroxyl radical attack, in vitro
NF-κB [2] = details: human IEC lines; by inhibiting I-κB kinase activity
NF-κB [3] = details: human colon carcinoma cell line

Structure (SMILES)	TNFα protein levels (TNFα)	scavenging of superoxide anion and hydroxyl radical [1]	reduction of oxidative damage sustained by DNA (DNA)	NF-κB activation (NF-κB [2])	minimum-inhibitory-concentration (MIC) for 90% of isolates (H. pylori; 110 mostly clinical isolates of H. pylori)	concentration with bactericidal effect (H. pylori; H. pylori in vitro)	concentration with bacteriostatic effect (H. pylori; H. pylori in vitro)	suppression of NF-κB reporter activity, relative potency (NF-κB [3])
O=C(O[C@@H]1Cc2c(O)cc(O)cc2O[C@@H]1c1cc(O)c(O)c(O)c1)c1cc(O)c(O)c(O)c1 [EGCG, epigallocatechin gallate]	significant decrease	most effective of all catechins	highly active	blocking NF-κB activation	32 μg per mL	4 times the MIC	2 times the MIC	–
CCC(=O)O [Propionate]	–	–	–	–	–	–	–	equipotent
CC(=O)O [acetate]	–	–	–	–	–	–	–	slightly less effective
